Source: patent EP4562004B1, “NOVEL 7-SUBSTITUTED INDOLE SULFONAMIDE DERIVATIVES” (F. Hoffmann-La Roche AG, priority 2022, dated 2024)
pIC50: −log10 of the molar value.

Biological target: human GPR17 short isoform (Homo sapiens, UniProt Q13304)
Assay: GPR17 cAMP assay (antagonist mode, TR-FRET cAMP detection)
Type: cell-based
Conditions: CHO-K1 cells stably expressing human GPR17 short isoform; with EC80 concentration of agonist MDL29,951, IBMX 0.5mM, forskolin 15µM; normalized to reference antagonist; read-out: hGPR17 cAMP IC50
Procedure: CHO-K1 cells stably expressing vector containing untagged human GPR17 short isoform (Roche) were cultured at 37°C / 5% CO2 in DMEM (Dulbecco's Modified Eagle Medium):F-12 (1:1) supplemented with 10% foetal bovine serum and 400 µg/ml Geneticin.
Changes in intracellular cyclic adenosine monophosphate (cAMP) levels were quantified using the Nano-TRF Detection Assay kit (Roche Diagnostics, Cat. No. 05214386001). This assay allows for direct cAMP quantification in a homogeneous solution. cAMP is detected based on time-resolved fluorescence energy transfer (TR-FRET) and competitive binding of ruthenylated cAMP and endogenous cAMP to an anti-cAMP monoclonal antibody labeled with AlexaFluor-700. The Ruthenium complex serves as the FRET donor and transfers energy to AlexaFluor-700. The FRET signal is inversely proportional to the cAMP concentration.
CHO-GPR17S cells were detached with Accutase and resuspended in assay buffer consisting of Hank's Balanced Salt Solution (HBSS), 10mM HEPES (4-(2-hydroxyethyl) piperazine-1-ethanesulfonic acid solution) and 0.1% bovine serum albumin (pH 7.4). The cells were seeded in black 384-well plates (Corning) at a density of 10'000 cells / 20µl assay buffer until the addition of compounds.
Test antagonist compounds were serially diluted in dimethyl sulfoxide (DMSO) and spotted in 384-well plates. The compounds were then diluted in HBSS buffer supplemented with an EC80 concentration of MDL29,951 (3-(2-Carboxy-4,6-dichloroindol-3-yl)propionic acid) (GPR17 agonist) plus 3-Isobutyl-1-methylxanthine (IBMX) (0.5mM final concentration) and added to the cells at room temperature. Forskolin (15µM final concentration) was added 5 minutes after the test compounds and the cells were incubated at room temperature for 30 minutes. The assay was stopped by adding cAMP detection mix (containing detergents for cell lysis) for 90 minutes at room temperature.
Cellular cAMP was measured using a Paradigm reader (Molecular Devices). The raw data was used to calculate the FRET signal based on the assay's P-factor as per cAMP kit instructions. The data was normalized to the maximal activity of a reference antagonist and dose response curves were fitted to the percent activity of the test compounds using a sigmoidal dose response model (Genedata Screener).
Results in the hGPR17 cAMP assay are provided for compounds of formula I in Table 1 Table 1: […]

human GPR17 short isoform, sequence (Q13304 29-367): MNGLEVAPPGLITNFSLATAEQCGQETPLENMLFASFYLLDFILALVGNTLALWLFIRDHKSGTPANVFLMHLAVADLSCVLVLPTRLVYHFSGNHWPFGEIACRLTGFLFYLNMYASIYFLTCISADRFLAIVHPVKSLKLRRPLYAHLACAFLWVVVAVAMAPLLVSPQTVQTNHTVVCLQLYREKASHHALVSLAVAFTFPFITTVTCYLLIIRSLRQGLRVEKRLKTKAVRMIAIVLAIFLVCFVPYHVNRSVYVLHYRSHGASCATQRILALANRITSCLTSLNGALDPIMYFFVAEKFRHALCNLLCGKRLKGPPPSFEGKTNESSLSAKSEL

pIC50 | SMILES
7.17 | COc1nc(NS(=O)(=O)c2c[nH]c3c(-n4ccc(C)n4)cccc23)nc(OC)c1CC(F)F [Example 1, N-[5-(2,2-difluoroethyl)-4,6-dimethoxy-pyrimidin-2-yl]-7-(3-methylpyrazol-1-yl)-1H-indole-3-sulfonamide]
7.49 | COc1nc(NS(=O)(=O)c2c[nH]c3c(-n4nc(C)cc4C)cccc23)nc(OC)c1CC(F)F [Example 2, N-[5-(2,2-difluoroethyl)-4,6-dimethoxy-pyrimidin-2-yl]-7-(3,5-dimethylpyrazol-1-yl)-1H-indole-3-sulfonamide]
6.52 | COc1nc(NS(=O)(=O)c2c[nH]c3c(-n4ccnc4)cccc23)nc(OC)c1CC(F)F [Example 3, N-[5-(2,2-difluoroethyl)-4,6-dimethoxy-pyrimidin-2-yl]-7-imidazol-1-yl-1H-indole-3-sulfonamide]
7.66 | COc1nc(NS(=O)(=O)c2c[nH]c3c(-n4cccn4)c(Cl)ccc23)nc(OC)c1CC(F)F [Example 4, 6-chloro-N-[5-(2,2-difluoroethyl)-4,6-dimethoxy-pyrimidin-2-yl]-7-pyrazol-1-yl-1H-indole-3-sulfonamide]
7.32 | COc1nc(NS(=O)(=O)c2c[nH]c3c(-n4ccnc4C)cccc23)nc(OC)c1CC(F)F [Example 5, N-[5-(2,2-difluoroethyl)-4,6-dimethoxy-pyrimidin-2-yl]-7-(2-methylimidazol-1-yl)-1H-indole-3-sulfonamide]
7.30 | COc1nc(NS(=O)(=O)c2c[nH]c3c(-n4ccnc4)c(Cl)ccc23)nc(OC)c1OCC(F)F [Example 6, 6-chloro-N-[5-(2,2-difluoroethoxy)-4,6-dimethoxy-pyrimidin-2-yl]-7-imidazol-1-yl-1H-indole-3-sulfonamide]
7.68 | COc1nc(NS(=O)(=O)c2c[nH]c3c(-n4nccn4)c(Cl)ccc23)nc(OC)c1CC(F)F [Example 7, 6-chloro-N-[5-(2,2-difluoroethyl)-4,6-dimethoxy-pyrimidin-2-yl]-7-(triazol-2-yl)-1H-indole-3-sulfonamide]
6.61 | COc1nc(NS(=O)(=O)c2c[nH]c3c(-n4ccnc4)c(Cl)ccc23)ncc1CC(F)F [Example 8, 6-chloro-N-[5-(2,2-difluoroethyl)-4-methoxy-pyrimidin-2-yl]-7-imidazol-1-yl-1H-indole-3-sulfonamide]
7.49 | COc1nc(NS(=O)(=O)c2c[nH]c3c(-n4nccn4)c(Cl)ccc23)nc(OC)c1OCC(F)F [Example 9, 6-chloro-N-[5-(2,2-difluoroethoxy)-4,6-dimethoxy-pyrimidin-2-yl]-7-(triazol-2-yl)-1H-indole-3-sulfonamide]
7.00 | COc1nc(NS(=O)(=O)c2c[nH]c3c(-n4cnnc4)c(Cl)ccc23)nc(OC)c1CC(F)F [Example 10, 6-chloro-N-[5-(2,2-difluoroethyl)-4,6-dimethoxy-pyrimidin-2-yl]-7-(1,2,4-triazol-4-yl)-1H-indole-3-sulfonamide]
7.13 | COc1nc(NS(=O)(=O)c2c[nH]c3c(-n4nccn4)c(C(F)F)ccc23)nc(OC)c1OCC(F)F [Example 11, N-[5-(2,2-difluoroethoxy)-4,6-dimethoxy-pyrimidin-2-yl]-6-(difluoromethyl)-7-(triazol-2-yl)-1H-indole-3-sulfonamide]
7.28 | COc1nc(NS(=O)(=O)c2c[nH]c3c(-n4nccn4)c(Cl)ccc23)ncc1OCCF [Example 12, 6-chloro-N-[5-(2-fluoroethoxy)-4-methoxy-pyrimidin-2-yl]-7-(triazol-2-yl)-1H-indole-3-sulfonamide]
6.69 | COc1nc(NS(=O)(=O)c2c[nH]c3c(-n4nccn4)cccc23)nc(OC)c1CC(F)F [Example 13, N-[5-(2,2-difluoroethyl)-4,6-dimethoxy-pyrimidin-2-yl]-7-(triazol-2-yl)-1H-indole-3-sulfonamide]
7.55 | COc1nc(NS(=O)(=O)c2c[nH]c3c(-n4nccn4)c(Cl)ccc23)nc(OC)c1OCCF [Example 14, 6-chloro-N-[5-(2-fluoroethoxy)-4,6-dimethoxy-pyrimidin-2-yl]-7-(triazol-2-yl)-1H-indole-3-sulfonamide]
7.60 | COc1nc(NS(=O)(=O)c2c[nH]c3c(-n4nccn4)c(Cl)ccc23)nc(OC)c1OC(F)F [Example 15, 6-chloro-N-[5-(difluoromethoxy)-4,6-dimethoxy-pyrimidin-2-yl]-7-(triazol-2-yl)-1H-indole-3-sulfonamide]
7.62 | COc1nc(NS(=O)(=O)c2c[nH]c3c(-n4nccn4)c(Cl)ccc23)nc(OC)c1CC(F)CF (centres unmarked) [Example 16, 6-chloro-N-[5-(2,3-difluoropropyl)-4,6-dimethoxy-pyrimidin-2-yl]-7-(triazol-2-yl)-1H-indole-3-sulfonamide]
7.62 | COc1nc(NS(=O)(=O)c2c[nH]c3c(-n4nccn4)c(Cl)ccc23)nc(OC)c1CCC(F)F [Example 17, 6-chloro-N-[5-(3,3-difluoropropyl)-4,6-dimethoxy-pyrimidin-2-yl]-7-(triazol-2-yl)-1H-indole-3-sulfonamide]
7.60 | COc1nc(NS(=O)(=O)c2c[nH]c3c(-n4nccn4)c(Cl)ccc23)nc(OC)c1C1CC1C#N (centres unmarked) [Example 18, 6-chloro-N-[5-(2-cyanocyclopropyl)-4,6-dimethoxy-pyrimidin-2-yl]-7-(triazol-2-yl)-1H-indole-3-sulfonamide]
6.50 | COc1nc(NS(=O)(=O)c2c[nH]c3c(-n4nccn4)cccc23)nc(OC)c1OCCF [Example 19, N-[5-(2-fluoroethoxy)-4,6-dimethoxy-pyrimidin-2-yl]-7-(triazol-2-yl)-1H-indole-3-sulfonamide]
6.35 | COc1nc(NS(=O)(=O)c2c[nH]c3c(-n4nccn4)cccc23)nc(OC)c1OCC(F)F [Example 20, N-[5-(2,2-difluoroethoxy)-4,6-dimethoxy-pyrimidin-2-yl]-7-(triazol-2-yl)-1H-indole-3-sulfonamide]
6.71 | COc1nc(NS(=O)(=O)c2c[nH]c3c(-n4nccn4)cccc23)nc(OC)c1C1CC1C#N (centres unmarked) [Example 21, N-[5-(2-cyanocyclopropyl)-4,6-dimethoxy-pyrimidin-2-yl]-7-(triazol-2-yl)-1H-indole-3-sulfonamide]
7.68 | COc1nc(NS(=O)(=O)c2c[nH]c3c(-n4nccn4)c(C)ccc23)nc(OC)c1CC(F)F [Example 22, N-[5-(2,2-difluoroethyl)-4,6-dimethoxy-pyrimidin-2-yl]-6-methyl-7-(triazol-2-yl)-1H-indole-3-sulfonamide]
7.46 | COc1nc(NS(=O)(=O)c2c[nH]c3c(-n4nccn4)c(C)ccc23)nc(OC)c1OCCF [Example 23, N-[5-(2-fluoroethoxy)-4,6-dimethoxy-pyrimidin-2-yl]-6-methyl-7-(triazol-2-yl)-1H-indole-3-sulfonamide]
7.42 | COc1nc(NS(=O)(=O)c2c[nH]c3c(-n4nccn4)c(C)ccc23)nc(OC)c1OC(F)F [Example 24, N-[5-(difluoromethoxy)-4,6-dimethoxy-pyrimidin-2-yl]-6-methyl-7-(triazol-2-yl)-1H-indole-3-sulfonamide]
7.47 | COc1nc(NS(=O)(=O)c2c[nH]c3c(-n4nccn4)c(C)ccc23)nc(OC)c1OCC(F)F [Example 25, N-[5-(2,2-difluoroethoxy)-4,6-dimethoxy-pyrimidin-2-yl]-6-methyl-7-(triazol-2-yl)-1H-indole-3-sulfonamide]
7.60 | COc1nc(NS(=O)(=O)c2c[nH]c3c(-n4nccn4)c(C)ccc23)nc(OC)c1C1CC1C#N (centres unmarked) [Example 26, N-[5-(2-cyanocyclopropyl)-4,6-dimethoxy-pyrimidin-2-yl]-6-methyl-7-(triazol-2-yl)-1H-indole-3-sulfonamide]
7.72 | COc1nc(NS(=O)(=O)c2c[nH]c3c(-n4nccn4)c(Br)ccc23)nc(OC)c1CC(F)F [Example 27, 6-bromo-N-[5-(2,2-difluoroethyl)-4,6-dimethoxy-pyrimidin-2-yl]-7-(triazol-2-yl)-1H-indole-3-sulfonamide]
7.57 | COc1nc(NS(=O)(=O)c2c[nH]c3c(-n4nccn4)c(Br)ccc23)nc(OC)c1OCCF [Example 28, 6-bromo-N-[5-(2-fluoroethoxy)-4,6-dimethoxy-pyrimidin-2-yl]-7-(triazol-2-yl)-1H-indole-3-sulfonamide]
7.66 | COc1nc(NS(=O)(=O)c2c[nH]c3c(-n4nccn4)c(Br)ccc23)nc(OC)c1OC(F)F [Example 29, 6-bromo-N-[5-(difluoromethoxy)-4,6-dimethoxy-pyrimidin-2-yl]-7-(triazol-2-yl)-1H-indole-3-sulfonamide]
